Reference: ChEMBL document CHEMBL1201861, “Genomics of Drug Sensitity in Cancer screening data, Wellcome Trust Sanger Institute”

How the values were obtained:
Assay in all cases: cells
Conditions in all cases: Homo sapiens
[1] = tested on: COLO-824; assay type: functional, cell-based
Description: SANGER: Inhibition of human COLO-824 cell growth in a cell viability assay.

[2] = tested on: CP66-MEL; assay type: functional, cell-based;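 also: growth inhibition of CP66-MEL cells determined in a cell viability assay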
Description: SANGER: Inhibition of human CP66-MEL cell growth in a cell viability assay.

[3] = tested on: CW-2; assay type: functional, cell-based;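 also: growth inhibition of CW-2 cells, read out by a cell viability assay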
Description: SANGER: Inhibition of human CW-2 cell growth in a cell viability assay.

[4] = tested on: D283 Med; assay type: functional, cell-based
Description: SANGER: Inhibition of human D-283MED cell growth in a cell viability assay.

[5] = tested on: DB; assay type: functional, cell-based
Description: SANGER: Inhibition of human DB cell growth in a cell viability assay.

[6] = tested on: DEL; assay type: functional, cell-based;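 also: growth inhibition of the human DEL cell line, read out with a cell viability assay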
Description: SANGER: Inhibition of human DEL cell growth in a cell viability assay.

[7] = tested on: GAK; assay type: functional, cell-based;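 also: cell growth inhibition read out by a cell viability assay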
Description: SANGER: Inhibition of human GAK cell growth in a cell viability assay.

[8] = tested on: GI-ME-N; assay type: functional, cell-based;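 also: growth inhibition of human GI-ME-N cells, read out with a cell viability assay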
Description: SANGER: Inhibition of human GI-ME-N cell growth in a cell viability assay.

[9] = tested on: HEL; assay type: functional, cell-based;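 also: growth inhibition of HEL cells, read out with a cell viability assay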
Description: SANGER: Inhibition of human HEL cell growth in a cell viability assay.

[10] = tested on: HH; assay type: functional, cell-based
Description: SANGER: Inhibition of human HH cell growth in a cell viability assay.

[11] = tested on: KALS-1; assay type: functional, cell-based;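 also: growth inhibition of KALS-1 cells, determined with a cell viability assay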
Description: SANGER: Inhibition of human KALS-1 cell growth in a cell viability assay.

[12] = tested on: KINGS-1; assay type: functional, cell-based;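 also: cell viability assay measuring suppression of KINGS-1 cell growth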
Description: SANGER: Inhibition of human KINGS-1 cell growth in a cell viability assay.

[13] = tested on: KLE; assay type: functional, cell-based;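 also: growth inhibition of human KLE cells, read out with a cell viability assay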
Description: SANGER: Inhibition of human KLE cell growth in a cell viability assay.

[14] = tested on: KNS-42; assay type: functional, cell-based;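 also: growth inhibition of KNS-42 cells, read out with a cell viability assay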
Description: SANGER: Inhibition of human KNS-42 cell growth in a cell viability assay.

[15] = tested on: KP-N-YS; assay type: functional, cell-based;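 also: cell viability assay measuring inhibition of cell line growth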
Description: SANGER: Inhibition of human KP-N-YS cell growth in a cell viability assay.

[16] = tested on: KURAMOCHI; assay type: functional, cell-based;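 also: growth inhibition of KURAMOCHI cells, read out with a cell viability assay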
Description: SANGER: Inhibition of human KURAMOCHI cell growth in a cell viability assay.

[17] = tested on: LC-2-ad; assay type: functional, cell-based;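 also: growth inhibition of human LC-2-ad cells, read out with a cell viability assay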
Description: SANGER: Inhibition of human LC-2-ad cell growth in a cell viability assay.

[18] = tested on: LOX IMVI; assay type: functional, cell-based
Description: SANGER: Inhibition of human LOXIMVI cell growth in a cell viability assay.

[19] = tested on: MEG-01; assay type: functional, cell-based;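 also: growth inhibition of MEG-01 cells, read out by a cell viability assay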
Description: SANGER: Inhibition of human MEG-01 cell growth in a cell viability assay.

[20] = tested on: MFM-223; assay type: functional, cell-based
Description: SANGER: Inhibition of human MFM-223 cell growth in a cell viability assay.

[21] = tested on: MN-60; assay type: functional, cell-based;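 also: growth inhibition of the MN-60 cell line, determined with a cell viability assay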
Description: SANGER: Inhibition of human MN-60 cell growth in a cell viability assay.

[22] = tested on: MPP-89; assay type: functional, cell-based;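 also: growth inhibition of human MPP-89 cells, read out with a cell viability assay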
Description: SANGER: Inhibition of human MPP-89 cell growth in a cell viability assay.

[23] = tested on: MS-1; assay type: functional, cell-based;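 also: growth inhibition of MS-1 cells, read out by cell viability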
Description: SANGER: Inhibition of human MS-1 cell growth in a cell viability assay.

[24] = tested on: MSTO-211H; assay type: functional, cell-based
Description: SANGER: Inhibition of human MSTO-211H cell growth in a cell viability assay.

[25] = tested on: MZ1-PC; assay type: functional, cell-based;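 also: cell viability assay measuring growth inhibition of human MZ1-PC cells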
Description: SANGER: Inhibition of human MZ1-PC cell growth in a cell viability assay.

[26] = tested on: Mo; assay type: functional, cell-based
Description: SANGER: Inhibition of human Mo-T cell growth in a cell viability assay.

[27] = tested on: NB10; assay type: functional, cell-based;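 also: growth inhibition of NB10 cells, read out by a cell viability assay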
Description: SANGER: Inhibition of human NB10 cell growth in a cell viability assay.

[28] = tested on: NB5; assay type: functional, cell-based;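 also: growth inhibition of NB5 cells, read out as cell viability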
Description: SANGER: Inhibition of human NB5 cell growth in a cell viability assay.

[29] = tested on: NCI-H1092; assay type: functional, cell-based;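 also: cell growth inhibition measured with a cell viability assay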
Description: SANGER: Inhibition of human NCI-H1092 cell growth in a cell viability assay.

[30] = tested on: NCI-H1648; assay type: functional, cell-based;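 also: cell viability assay measuring inhibition of NCI-H1648 cell growth, from the Sanger screening data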
Description: SANGER: Inhibition of human NCI-H1648 cell growth in a cell viability assay.

[31] = tested on: NCI-H1770; assay type: functional, cell-based;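 also: growth inhibition of NCI-H1770 cells determined with a viability readout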
Description: SANGER: Inhibition of human NCI-H1770 cell growth in a cell viability assay.

[32] = tested on: NCI-H226; assay type: functional, cell-based;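 also: cell viability read-out used to gauge growth inhibition of the cells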
Description: SANGER: Inhibition of human NCI-H226 cell growth in a cell viability assay.

[33] = tested on: NCI-H23; assay type: functional, cell-based;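 also: cell viability assay measuring growth inhibition of NCI-H23 cells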
Description: SANGER: Inhibition of human NCI-H23 cell growth in a cell viability assay.

[34] = tested on: SNU1; assay type: functional, cell-based;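 also: growth inhibition of human NCI-SNU-1 cells, measured with a cell viability assay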
Description: SANGER: Inhibition of human NCI-SNU-1 cell growth in a cell viability assay.

[35] = tested on: NEC8; assay type: functional, cell-based;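 also: growth inhibition of human NEC8 cells, read out by a cell viability assay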
Description: SANGER: Inhibition of human NEC8 cell growth in a cell viability assay.

[36] = tested on: NH-12; assay type: functional, cell-based;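 also: growth inhibition of NH-12 cells, read out with a cell viability assay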
Description: SANGER: Inhibition of human NH-12 cell growth in a cell viability assay.

[37] = tested on: NOS-1; assay type: functional, cell-based;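 also: growth inhibition of the human NOS-1 cell line, read out with a cell viability assay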
Description: SANGER: Inhibition of human NOS-1 cell growth in a cell viability assay.

[38] = tested on: NTERA-2-cl-D1; assay type: functional, cell-based;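 also: inhibition of cell growth, measured with a cell viability assay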
Description: SANGER: Inhibition of human NTERA-S-cl-D1 cell growth in a cell viability assay.

[39] = tested on: OCUB-M; assay type: functional, cell-based;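 also: growth inhibition of the cancer cell line, read out through a cell viability assay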
Description: SANGER: Inhibition of human OCUB-M cell growth in a cell viability assay.

[40] = tested on: RH-1; assay type: functional, cell-based;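 also: growth inhibition of human RH-1 cells, read out with a cell viability assay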
Description: SANGER: Inhibition of human RH-1 cell growth in a cell viability assay.

[41] = tested on: SCC-15; assay type: functional, cell-based;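 also: growth inhibition of SCC-15 cells, read out with a cell viability assay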
Description: SANGER: Inhibition of human SCC-15 cell growth in a cell viability assay.

[42] = tested on: SNB-75; assay type: functional, cell-based;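 also: cell viability assay measuring growth inhibition of human SNB-75 cells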
Description: SANGER: Inhibition of human SNB75 cell growth in a cell viability assay.

[43] = tested on: SW684; assay type: functional, cell-based;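 also: growth inhibition of human SW684 cells, measured by a cell viability assay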
Description: SANGER: Inhibition of human SW684 cell growth in a cell viability assay.

[44] = tested on: SW 954; assay type: functional, cell-based;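 also: growth inhibition of SW954 human cancer cells, read out as cell viability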
Description: SANGER: Inhibition of human SW954 cell growth in a cell viability assay.

[45] = tested on: SW982; assay type: functional, cell-based;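 also: growth inhibition of SW982 cells, read out with a cell viability assay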
Description: SANGER: Inhibition of human SW982 cell growth in a cell viability assay.

[46] = tested on: TE-1; assay type: functional, cell-based;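 also: growth inhibition of the human TE-1 cell line, read out with a cell viability assay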
Description: SANGER: Inhibition of human TE-1 cell growth in a cell viability assay.

[47] = tested on: 8-MG-BA; assay type: functional, cell-based;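 also: growth inhibition of 8-MG-BA cells, read out with a cell viability assay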
Description: SANGER: Inhibition of human 8-MG-BA cell growth in a cell viability assay.

[48] = tested on: ALL-PO; assay type: functional, cell-based;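 also: growth inhibition of ALL-PO cells, read out by a cell viability assay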
Description: SANGER: Inhibition of human ALL-PO cell growth in a cell viability assay.

[49] = tested on: AM-38; assay type: functional, cell-based;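 also: growth inhibition of AM-38 cells of human origin, read out by a cell viability assay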
Description: SANGER: Inhibition of human AM-38 cell growth in a cell viability assay.

[50] = tested on: TE-11; assay type: functional, cell-based;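 also: growth inhibition of human TE-11 cells, read out by a cell viability assay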
Description: SANGER: Inhibition of human TE-11 cell growth in a cell viability assay.

[51] = tested on: TE-12; assay type: functional, cell-based;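 also: growth inhibition of TE-12 cells, read out by a cell viability assay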
Description: SANGER: Inhibition of human TE-12 cell growth in a cell viability assay.

[52] = tested on: TE-9; assay type: functional, cell-based;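 also: cell growth inhibition, measured with a cell viability readout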
Description: SANGER: Inhibition of human TE-9 cell growth in a cell viability assay.

[53] = tested on: TK-10; assay type: functional, cell-based;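 also: growth inhibition of TK-10 cells, read out in a cell viability assay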
Description: SANGER: Inhibition of human TK10 cell growth in a cell viability assay.

[54] = tested on: U-266; assay type: functional, cell-based
Description: SANGER: Inhibition of human U-266 cell growth in a cell viability assay.

[55] = tested on: U-87 MG; assay type: functional, cell-based, U-87MG ATCC;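 also: growth inhibition of the cells measured with a viability assay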
Description: SANGER: Inhibition of human U-87-MG cell growth in a cell viability assay.

[56] = tested on: UACC-257; assay type: functional, cell-based
Description: SANGER: Inhibition of human UACC-257 cell growth in a cell viability assay.

[57] = tested on: no-11; assay type: functional, cell-based;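 also: growth inhibition of human NO-11 cells, read out with a cell viability assay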
Description: SANGER: Inhibition of human no-11 cell growth in a cell viability assay.

[58] = tested on: CAS-1; assay type: functional, cell-based;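 also: growth inhibition of CAS-1 cells, measured with a cell viability assay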
Description: SANGER: Inhibition of human CAS-1 cell growth in a cell viability assay.

[59] = tested on: CGTH-W-1; assay type: functional, cell-based;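 also: growth inhibition of human CGTH-W-1 cells measured by cell viability assay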
Description: SANGER: Inhibition of human CGTH-W-1 cell growth in a cell viability assay.

[60] = tested on: COLO-684; assay type: functional, cell-based
Description: SANGER: Inhibition of human COLO-684 cell growth in a cell viability assay.

[61] = tested on: CTV-1; assay type: functional, cell-based;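 also: growth inhibition of the cell line, read out with a cell viability assay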
Description: SANGER: Inhibition of human CTV-1 cell growth in a cell viability assay.

[62] = tested on: KU812 cell line; assay type: functional, cell-based;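 also: growth inhibition of KU812 cells, read out with a cell viability assay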
Description: SANGER: Inhibition of human KU812 cell growth in a cell viability assay.

[63] = tested on: LU-139; assay type: functional, cell-based
Description: SANGER: Inhibition of human LU-139 cell growth in a cell viability assay.

[64] = tested on: Lu-65; assay type: functional, cell-based
Description: SANGER: Inhibition of human LU-65 cell growth in a cell viability assay.

Question: How did the IC50 [1] turn out when `O=c1cc(N2CCOCC2)oc2c(-c3cccc4c3sc3ccccc34)cccc12` was run?
Answer: > 2 µM

Question: And the IC50 [2]?
Answer: > 2 µM

Question: What about the IC50 [3] of the same molecule?
Answer: > 2 µM

Question: And the IC50 [4]?
Answer: > 2 µM

Question: What about the IC50 [5] of the same molecule?
Answer: > 2 µM

Question: And the IC50 [6]?
Answer: > 2 µM

Question: What about the IC50 [7] of the same molecule?
Answer: > 2 µM

Question: What about the IC50 [8] of the same molecule?
Answer: > 2 µM

Question: What about the IC50 [9] of the same molecule?
Answer: > 2 µM

Question: What about the IC50 [10] of the same molecule?
Answer: 1.18 µM

Question: And the IC50 [11]?
Answer: > 2 µM

Question: And the IC50 [12]?
Answer: > 2 µM

Question: And the IC50 [13]?
Answer: > 2 µM

Question: And the IC50 [14]?
Answer: > 2 µM

Question: What about the IC50 [15] of the same molecule?
Answer: 1.14 µM

Question: And the IC50 [16]?
Answer: > 2 µM

Question: And the IC50 [17]?
Answer: > 2 µM

Question: And the IC50 [18]?
Answer: > 2 µM

Question: And the IC50 [19]?
Answer: > 2 µM

Question: And the IC50 [20]?
Answer: > 2 µM

Question: What about the IC50 [21] of the same molecule?
Answer: > 2 µM

Question: And the IC50 [22]?
Answer: > 2 µM

Question: And the IC50 [23]?
Answer: > 2 µM

Question: And the IC50 [24]?
Answer: > 2 µM

Question: What about the IC50 [25] of the same molecule?
Answer: > 2 µM

Question: What about the IC50 [26] of the same molecule?
Answer: > 2 µM

Question: What about the IC50 [27] of the same molecule?
Answer: > 2 µM

Question: What about the IC50 [28] of the same molecule?
Answer: > 2 µM

Question: What about the IC50 [29] of the same molecule?
Answer: > 2 µM

Question: And the IC50 [30]?
Answer: > 2 µM

Question: What about the IC50 [31] of the same molecule?
Answer: 0.0214 µM

Question: What about the IC50 [32] of the same molecule?
Answer: > 2 µM

Question: And the IC50 [33]?
Answer: > 2 µM

Question: And the IC50 [34]?
Answer: 0.61 µM

Question: What about the IC50 [35] of the same molecule?
Answer: 1.55 µM

Question: And the IC50 [36]?
Answer: > 2 µM

Question: And the IC50 [37]?
Answer: > 2 µM

Question: And the IC50 [38]?
Answer: > 2 µM

Question: What about the IC50 [39] of the same molecule?
Answer: > 2 µM

Question: And the IC50 [40]?
Answer: > 2 µM

Question: What about the IC50 [41] of the same molecule?
Answer: > 2 µM

Question: What about the IC50 [42] of the same molecule?
Answer: > 2 µM

Question: And the IC50 [43]?
Answer: > 2 µM

Question: What about the IC50 [44] of the same molecule?
Answer: > 2 µM

Question: And the IC50 [45]?
Answer: > 2 µM

Question: And the IC50 [46]?
Answer: > 2 µM

Question: What about the IC50 [47] of the same molecule?
Answer: > 2 µM

Question: And the IC50 [48]?
Answer: > 2 µM

Question: And the IC50 [49]?
Answer: > 2 µM

Question: And the IC50 [50]?
Answer: > 2 µM

Question: And the IC50 [51]?
Answer: > 2 µM

Question: What about the IC50 [52] of the same molecule?
Answer: > 2 µM

Question: What about the IC50 [53] of the same molecule?
Answer: > 2 µM

Question: What about the IC50 [54] of the same molecule?
Answer: > 2 µM

Question: And the IC50 [55]?
Answer: > 2 µM

Question: And the IC50 [56]?
Answer: > 2 µM

Question: What about the IC50 [57] of the same molecule?
Answer: > 2 µM

Question: What about the IC50 [58] of the same molecule?
Answer: > 2 µM

Question: What about the IC50 [59] of the same molecule?
Answer: > 2 µM

Question: And the IC50 [60]?
Answer: > 2 µM

Question: For `Cn1c(=O)n(-c2ccc(C(C)(C)C#N)cc2)c2c3cc(-c4cnc5ccccc5c4)ccc3ncc21` [DACTOLISIB], which IC50 [1] is on record?
Answer: 0.689 µM

Question: What about the IC50 [61] of the same molecule?
Answer: 0.0328 µM

Question: What about the IC50 [3] of the same molecule?
Answer: 0.27 µM

Question: And the IC50 [4]?
Answer: 0.0496 µM

Question: And the IC50 [5]?
Answer: 0.0274 µM

Question: And the IC50 [6]?
Answer: 0.0205 µM

Question: What about the IC50 [7] of the same molecule?
Answer: 0.0989 µM

Question: And the IC50 [8]?
Answer: 0.0299 µM

Question: And the IC50 [9]?
Answer: 0.109 µM

Question: What about the IC50 [10] of the same molecule?
Answer: 0.0157 µM

Question: What about the IC50 [11] of the same molecule?
Answer: 0.0825 µM

Question: What about the IC50 [12] of the same molecule?
Answer: 0.0823 µM

Question: What about the IC50 [13] of the same molecule?
Answer: 0.252 µM

Question: And the IC50 [14]?
Answer: 0.144 µM

Question: And the IC50 [15]?
Answer: 0.185 µM

Question: And the IC50 [62]?
Answer: 0.0687 µM

Question: And the IC50 [16]?
Answer: 0.266 µM

Question: What about the IC50 [17] of the same molecule?
Answer: 0.159 µM

Question: And the IC50 [18]?
Answer: 0.015 µM

Question: And the IC50 [63]?
Answer: 0.00777 µM

Question: What about the IC50 [64] of the same molecule?
Answer: 1.62 µM

Question: And the IC50 [19]?
Answer: 0.0635 µM

Question: What about the IC50 [20] of the same molecule?
Answer: 0.132 µM

Question: And the IC50 [21]?
Answer: 0.038 µM

Question: What about the IC50 [22] of the same molecule?
Answer: 0.0253 µM

Question: And the IC50 [23]?
Answer: 0.108 µM

Question: What about the IC50 [24] of the same molecule?
Answer: 0.0635 µM

Question: What about the IC50 [25] of the same molecule?
Answer: 0.206 µM

Question: And the IC50 [26]?
Answer: 0.948 µM

Question: What about the IC50 [27] of the same molecule?
Answer: 0.24 µM

Question: What about the IC50 [28] of the same molecule?
Answer: 0.0406 µM

Question: What about the IC50 [29] of the same molecule?
Answer: 0.145 µM

Question: And the IC50 [30]?
Answer: 0.113 µM

Question: What about the IC50 [31] of the same molecule?
Answer: 0.327 µM

Question: And the IC50 [32]?
Answer: 0.708 µM

Question: What about the IC50 [33] of the same molecule?
Answer: 0.219 µM

Question: And the IC50 [34]?
Answer: 0.022 µM

Question: What about the IC50 [35] of the same molecule?
Answer: 0.0672 µM

Question: And the IC50 [36]?
Answer: 0.133 µM

Question: And the IC50 [37]?
Answer: 0.0301 µM

Question: What about the IC50 [38] of the same molecule?
Answer: 0.043 µM

Question: And the IC50 [39]?
Answer: 0.0824 µM

Question: What about the IC50 [40] of the same molecule?
Answer: 0.0547 µM

Question: And the IC50 [41]?
Answer: 0.174 µM

Question: What about the IC50 [42] of the same molecule?
Answer: 0.0543 µM

Question: What about the IC50 [43] of the same molecule?
Answer: 0.196 µM

Question: And the IC50 [44]?
Answer: 0.234 µM

Question: And the IC50 [45]?
Answer: 0.0499 µM

Question: What about the IC50 [46] of the same molecule?
Answer: 0.223 µM

Question: What about the IC50 [47] of the same molecule?
Answer: 0.0373 µM

Question: What about the IC50 [48] of the same molecule?
Answer: 0.416 µM

Question: What about the IC50 [49] of the same molecule?
Answer: 0.0693 µM

Question: And the IC50 [50]?
Answer: 0.056 µM

Question: And the IC50 [51]?
Answer: 0.141 µM

Question: And the IC50 [52]?
Answer: 1.13 µM

Question: What about the IC50 [53] of the same molecule?
Answer: 0.1 µM

Question: What about the IC50 [54] of the same molecule?
Answer: 0.206 µM

Question: What about the IC50 [55] of the same molecule?
Answer: 0.301 µM

Question: And the IC50 [56]?
Answer: 0.214 µM

Question: And the IC50 [57]?
Answer: 0.113 µM

Question: What about the IC50 [58] of the same molecule?
Answer: 0.207 µM

Question: And the IC50 [59]?
Answer: 0.0206 µM

Question: What about the IC50 [60] of the same molecule?
Answer: 0.0336 µM
